The record followed here is patent US20090062253A1, “HETEROCYCLODIAZEPINE CANNABINOID RECEPTOR MODULATORS FOR TREATMENT OF DISEASE” (KALYPSYS, INC., priority 2007, published 2009).

The target of assay [1] is T1, Human CB2 (Homo sapiens, UniProt P34972).
T1 construct: expressed in transfected cells; membrane preparation
In words: Human CB2 Radioligand Binding Assay. Particulars: membranes from stably transfected CHO CB2 cells; competition with [3H] CP-55,940; read-out: CB2 Ligand Binding Asssay. The method, then: (§1) This receptor binding filtration assay measures the receptor-ligand interactions of compounds by measuring ability to compete with a radiolabeled control ligand. Reactions were performed in 96 deep-well plate (Costar 3961) with a final volume of 600 ul. Compounds were added to each well either in single point (10 uM final) or dose-response. Compounds were delivered in DMSO or further diluted in incubation buffer to a final assay DMSO concentration of 1%. Incubation buffer (50 mM Tris-HCl pH 7.4, 2.5 mM EGTA, 5 mM MgCl2, 5.0 mg/ml fatty acid free BSA) was added to each well. Following buffer addition, [^3H] CP-55,940 was added. Tritiated CP-55,940 (Perkin Elmer) was used at the Kd determined from prior saturation binding experiments conducted on each lot of membranes. Membrane preparations from stably transfected CHO CB2 cells were added and the reaction was incubated for 90 minutes at 30° C. Unifilter GF/C filtration plates (Perkin Elmer) were pre-wet with 0.05% polyethylenimine. Samples were transferred to Unifilter plates and separation of unbound radioligand was achieved using a vacuum manifold (Millipore). Following thorough washing with 5 ml/well ice-cold wash buffer (50 mM Tris-HCl pH 7.4, 2.5 mM EGTA, 5 mM MgCl2, 0.5 mg/ml fatty acid free BSA), filterplates were dried completely. Betaplate Scint Scintillation cocktail (25 ul, Perkin Elmer) was applied and plates were read using Microbeta Trilux (Wallac). Data analysis was performed in Spotfire. Activity of the positive control (100 nM CP-55,940) was set as 100% efficacy.
Stable recombinant Human CB2-CHO cell membranes were prepared as follows: Chinese Hamster Ovarian (CHO) cells stably expressing human cannabinoid receptor type 2 were grown to ˜90% confluence in 15×100 mm culture dishes under puromycin selection (5 ug/ml) Cells were harvested from culture flasks using a cell scraper, were washed once with cold phosphate-buffered saline (calcium and magnesium free) and pelleted by centrifugation at 400 g for 5 min at 4° C. Cell pellet was washed once with cold phosphate-buffered saline and centrifuged again at 400×g for 5 min at 4° C. The pellet was suspended in ice-cold lysis buffer (10 mM Tris-HCl, 0.1 mM EDTA, containing […], pH 7.5) and homogenized in a chilled 7 ml glass dounce homogenizer using 50 strokes. The homogenate was centrifuged at 400 g for 15 min at 4° C. The cloudy supernatant was collected and centrifuged at 41000 g for 30 min at 4° C. The resulting pellet was washed with ice-cold sucrose-free lysis buffer and centrifuged again at 41000 g for 30 min at 4° C. The membrane pellet was suspended in sucrose-free storage buffer (10 mm Tris-HCl, 0.1 mM EDTA, pH 7.5) to a concentration of 2-3 mg protein/ml. Aliquots were flash frozen in liquid nitrogen and stored at −80° C. Concentration was determined using Dc protein assay kit (Bio-Rad).

The target of assay [2] is T2, human cannabinoid receptor type 1 (Homo sapiens, UniProt P21554).
T2 construct: purchased Perkin Elmer RBHCB1M; host or cells: HEK 293 EBNA cells
In words: Human CB1 Radioligand Binding Assay (basis of selectivity CB2 vs. CB1). The procedure:
as §1
The CB1 binding assay was performed as described above except that HEK 293 EBNA cells expressing human cannabinoid receptor type 1 (Perkin Elmer cat #RBHCB1M) were used according the manufacturer's instructions. The incubation buffer was composed of 50 mM Tris-HCl pH 7.4, 2.5 mM EDTA, 5 mM MgCl2, 5.0 mg/ml fatty acid free BSA and the wash buffer was composed of 50 mM Tris-HCl pH 7.4, 2.5 mM EDTA, 5 mM MgCl2, 0.5 mg/ml fatty acid free BSA. Activity of the positive control (100 nM CP-55,940) was set as 100% efficacy.

T1 sequence (P34972 whole entry): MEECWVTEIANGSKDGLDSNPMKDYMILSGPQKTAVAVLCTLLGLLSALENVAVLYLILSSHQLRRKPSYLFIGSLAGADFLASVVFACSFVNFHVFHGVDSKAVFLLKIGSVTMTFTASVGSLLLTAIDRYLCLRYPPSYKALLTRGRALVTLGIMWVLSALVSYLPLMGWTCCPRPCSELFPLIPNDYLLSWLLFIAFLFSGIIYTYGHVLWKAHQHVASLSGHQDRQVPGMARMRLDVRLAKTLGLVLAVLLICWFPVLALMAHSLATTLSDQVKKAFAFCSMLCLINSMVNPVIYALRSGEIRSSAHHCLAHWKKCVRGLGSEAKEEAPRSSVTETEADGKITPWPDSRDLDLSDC
T2 sequence (P21554 whole entry): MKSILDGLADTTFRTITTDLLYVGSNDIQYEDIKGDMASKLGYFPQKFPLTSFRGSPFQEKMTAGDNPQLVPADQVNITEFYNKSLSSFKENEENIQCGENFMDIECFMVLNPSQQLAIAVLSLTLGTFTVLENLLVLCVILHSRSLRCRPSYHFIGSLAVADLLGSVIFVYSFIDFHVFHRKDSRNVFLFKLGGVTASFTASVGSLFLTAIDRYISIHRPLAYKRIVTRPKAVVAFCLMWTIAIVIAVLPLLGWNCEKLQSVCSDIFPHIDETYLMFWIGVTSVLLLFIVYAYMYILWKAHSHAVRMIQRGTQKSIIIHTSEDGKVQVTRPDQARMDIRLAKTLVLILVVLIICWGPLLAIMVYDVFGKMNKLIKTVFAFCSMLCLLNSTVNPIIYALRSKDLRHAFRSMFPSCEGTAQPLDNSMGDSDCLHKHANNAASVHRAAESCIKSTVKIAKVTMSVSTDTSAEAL

For the molecule `CC(C)(C)c1ccc(C2c3cccn3CCC2C(=O)Nc2ccc(F)c(F)c2)cc1` (mixture of isomers) [Example 95, 8-(4-tert-Butylphenyl)-N-(3,4-difluorophenyl)-5,6,7,8-tetrahydroindolizine-7-carboxamide], in assay [1], the IC50 (radioligand displacement) was under 1000 nM. Further, the “Selectivity, CB2 vs. CB1” value in assay [2] is listed as “+ (+ indicates > 10-fold)”.
Take `O=C(Nc1ccc(F)cc1F)C1CCn2cccc2C1c1ccccc1` (mixture of isomers) [Example 100, N-(2,4-Difluorophenyl)-8-phenyl-5,6,7,8-tetrahydroindolizine-7-carboxamide]: the IC50 (radioligand displacement) in assay [1] was over 1000 nM. Moreover, the “Selectivity, CB2 vs. CB1” value in assay [2] was “− (− indicates < 10-fold)”.
Take `O=C(Nc1ccc(F)c(F)c1)C1CCn2cccc2C1c1ccccc1` (mixture of isomers) [Example 101, N-(3,4-Difluorophenyl)-8-phenyl-5,6,7,8-tetrahydroindolizine-7-carboxamide]: the IC50 (radioligand displacement) in assay [1] was over 1000 nM. Besides, the “Selectivity, CB2 vs. CB1” value in assay [2] is “− (− indicates < 10-fold)”.
On the same counts, the results for `O=C(Nc1ccc(Cl)cc1)C1CCn2cccc2C1c1ccccc1` (mixture of isomers) [Example 102, N-(4-Chlorophenyl)-8-phenyl-5,6,7,8-tetrahydroindolizine-7-carboxamide] are over 1000 nM and “− (− indicates < 10-fold)”.
The corresponding values for `O=C(Nc1ccc(C(F)(F)F)cc1)C1CCn2cccc2C1c1ccccc1` (mixture of isomers) [Example 103, 8-Phenyl-N-(4-(trifluoromethyl)phenyl)-5,6,7,8-tetrahydroindolizine-7-carboxamide] are over 1000 nM and “− (− indicates < 10-fold)”.
Turning to `O=C(Nc1ccc(OC(F)(F)F)cc1)C1CCn2cccc2C1c1ccccc1` (mixture of isomers) [Example 104, 8-Phenyl-N-(4-(trifluoromethoxy)phenyl)-5,6,7,8-tetrahydroindolizine-7-carboxamide], in assay [1], the IC50 (radioligand displacement) is over 1000 nM. The “Selectivity, CB2 vs. CB1” value in assay [2] is reported as “− (− indicates < 10-fold)”.
With `CC(C)(C)c1ccc(C2c3cccn3CCCC2NC(=O)Nc2ccc(Cl)cc2)cc1` (mixture of isomers) [Example 115, 1-(9-(4-tert-Butylphenyl)-6,7,8,9-tetrahydro-5H-pyrrolo[1,2-a]azepin-8-yl)-3-(4-chlorophenyl)urea], the IC50 (radioligand displacement) in assay [1] is over 1000 nM. In addition, the “Selectivity, CB2 vs. CB1” value in assay [2] is listed as “+ (+ indicates > 10-fold)”.
Consider `CC(C)(C)c1ccc(C2c3cccn3CCCC2NC(=O)Nc2ccc(F)cc2F)cc1` (mixture of isomers) [Example 116, 1-(9-(4-tert-Butylphenyl)-6,7,8,9-tetrahydro-5H-pyrrolo[1,2-a]azepin-8-yl)-3-(2,4-difluorophenyl)urea], for which the IC50 (radioligand displacement) in assay [1] is under 1000 nM. Also, the “Selectivity, CB2 vs. CB1” value in assay [2] is reported as “− (− indicates < 10-fold)”.
As to `CC(C)(C)c1ccc(C2c3cccn3CCCC2NC(=O)Nc2ccc(F)c(F)c2)cc1` (mixture of isomers) [Example 117, 1-(9-(4-tert-Butylphenyl)-6,7,8,9-tetrahydro-5H-pyrrolo[1,2-a]azepin-8-yl)-3-(3,4-difluorophenyl)urea], the IC50 (radioligand displacement) in assay [1] was under 1000 nM. Besides, the “Selectivity, CB2 vs. CB1” value in assay [2] was “− (− indicates < 10-fold)”.
On the same counts, the results for `CC(C)(C)c1ccc(C2c3cccn3CCCC2NC(=O)Nc2ccc(C(F)(F)F)cc2)cc1` (mixture of isomers) [Example 122, 1-(9-(4-tert-Butylphenyl)-6,7,8,9-tetrahydro-5H-pyrrolo[1,2-a]azepin-8-yl)-3-(4-(trifluoromethyl)phenyl)urea] are under 1000 nM and “+ (+ indicates > 10-fold)”.
In the case of `CC(C)(C)c1ccc(CC2[C@@H]3CCCN3CCCN2C(=O)Nc2ccc(F)cc2F)cc1` (mixture of isomers) [Example 124, (9aS)-1-(4-tert-Butylbenzyl)-N-(2,4-difluorophenyl)hexahydro-1H-pyrrolo[1,2-a][1,4]diazepine-2(3H)-carboxamide], the IC50 (radioligand displacement) in assay [1] is over 1000 nM. The “Selectivity, CB2 vs. CB1” value in assay [2] is on record as “− (− indicates < 10-fold)”.
Consider `CC(C)(C)c1ccc(CC2[C@@H]3CCCN3CCCN2C(=O)Nc2ccc(Cl)cc2)cc1` (mixture of isomers) [Example 125, (9aS)-1-(4-tert-Butylbenzyl)-N-(4-chlorophenyl)hexahydro-1H-pyrrolo[1,2-a][1,4]diazepine-2(3H)-carboxamide], for which the IC50 (radioligand displacement) in assay [1] is over 1000 nM. In addition, the “Selectivity, CB2 vs. CB1” value in assay [2] was “− (− indicates < 10-fold)”.
`CC(C)(C)c1ccc(CC2[C@@H]3CCCN3CCCN2C(=O)Nc2ccccc2)cc1` (mixture of isomers) [Example 126, (9aS)-1-(4-tert-Butylbenzyl)-N-phenylhexahydro-1H-pyrrolo[1,2-a][1,4]diazepine-2(3H)-carboxamide]: in assay [1], the IC50 (radioligand displacement) is over 1000 nM. The “Selectivity, CB2 vs. CB1” value in assay [2] is “− (− indicates < 10-fold)”.
Take `CC(C)(C)c1ccc(CC2[C@@H]3CCCN3CCCN2C(=O)Nc2ccc(F)cc2)cc1` (mixture of isomers) [Example 127, (9aS)-1-(4-tert-Butylbenzyl)-N-(4-fluorophenyl)hexahydro-1H-pyrrolo[1,2-a][1,4]diazepine-2(3H)-carboxamide]: the IC50 (radioligand displacement) in assay [1] is over 1000 nM. The “Selectivity, CB2 vs. CB1” value in assay [2] is on record as “− (− indicates < 10-fold)”.
On to `CC(C)(C)c1ccc(C2c3cccn3CCN2C(=O)Nc2ccc(Cl)cc2Cl)cc1` (centres unmarked) [Example 3, 1-(4-tert-Butylphenyl)-N-(2,4-dichlorophenyl)-3,4-dihydropyrrolo[1,2-a]pyrazine-2(1H)-carboxamide], for which the IC50 (radioligand displacement) in assay [1] was under 1000 nM.
Same read-out and setting: as for `CC(C)(C)c1ccc(C2NCCCn3cccc32)cc1` (centres unmarked) [Example 6, 1-(4-tert-Butylphenyl)-2,3,4,5-tetrahydro-1H-pyrrolo[1,2-a][1,4]diazepine], the figure is over 1000 nM; as for `Cc1ccc(C2c3cccn3CCCN2C(=O)Nc2ccc(Cl)cc2Cl)cc1` (centres unmarked) [Example 9, N-(2,4-Dichlorophenyl)-1-p-tolyl-4,5-dihydro-1H-pyrrolo[1,2-a][1,4]diazepine-2(3H)-carboxamide], under 1000 nM.
For the molecule `O=C(Nc1ccc(F)cc1F)N1CCCn2cccc2C1c1ccc(OC(F)(F)F)cc1` (centres unmarked) [Example 15, N-(2,4-Difluorophenyl)-1-(4-(trifluoromethoxy)phenyl)-4,5-dihydro-1H-pyrrolo[1,2-a][1,4]diazepine-2(3H)-carboxamide], the IC50 (radioligand displacement) in assay [1] was under 1000 nM.
In the case of `O=C(Nc1ccc(Cl)cc1Cl)N1CCCn2cccc2C1c1ccc(OC(F)(F)F)cc1` (centres unmarked) [Example 16], the IC50 (radioligand displacement) in assay [1] was over 1000 nM.
Take `O=C(Nc1ccc(C(F)(F)F)cc1)C1=C(c2ccccc2)c2cccn2CC1` [Example 68, 8-Phenyl-N-(4-(trifluoromethyl)phenyl)-5,6-dihydroindolizine-7-carboxamide]: in assay [1], the IC50 (radioligand displacement) was over 1000 nM.
On to `O=C(Nc1ccc(F)cc1F)C1=C(c2ccccc2)c2cccn2CC1` [Example 70, N-(2,4-Difluorophenyl)-8-phenyl-5,6-dihydroindolizine-7-carboxamide], for which, in assay [1], the IC50 (radioligand displacement) is over 1000 nM.
